Source: US9056104B2, “Dynamic inhibitors of heat shock protein 90” (THE UNIVERSITY OF KANSAS, priority 2011, dated 2015)
Where two headings read alike, the source gives them in different places.

Assays:
[1] = test system: SKBr3 (estrogen receptor negative, Her2 over-expressing breast cancer cells); experiment: Anti-proliferative activity against SKBr3 cells; assay type: cell-based; settings: mean ± SD
Procedure: (§1) Once synthesized, the library of coumermycin A1 analogs containing the olefinic and saturated linkers, were evaluated for anti-proliferative activity against SKBr3 (estrogen receptor negative, Her2 over-expressing breast cancer cells), MCF-7 (estrogen receptor positive breast cancer cells), A549 (human lung adenocarcinoma epithelial), HT29 (Human colon adenocarcinoma grade II), and PC3mm2 (androgen receptor insensitive prostate cancer) cell lines. […] As shown, X is at the 6 position and Y is at the 8 position.

[2] = test system: MCF-7 (estrogen receptor positive breast cancer cells); experiment: Anti-proliferative activity against MCF-7 cells; assay type: cell-based; settings: mean ± SD
Procedure: as §1

[3] = test system: PC3mm2 (androgen receptor insensitive prostate cancer); experiment: Anti-proliferative activity against PC3mm2 cells; assay type: cell-based
Procedure: as §1, with “lines. The activities produced provide insight into the optimal distance between binding sites and provide rationale for subsequent analog design.” for “lines.”

[4] = test system: A549 (human lung adenocarcinoma epithelial); experiment: Anti-proliferative activity against A549 cells; assay type: cell-based
Procedure: as §1, with “lines. The activities produced provide insight into the optimal distance between binding sites and provide rationale for subsequent analog design.” for “lines.”

[5] = test system: HT29 (Human colon adenocarcinoma grade II); experiment: Anti-proliferative activity against HT29 cells; assay type: cell-based
Procedure: as §1, with “lines. The activities produced provide insight into the optimal distance between binding sites and provide rationale for subsequent analog design.” for “lines.”

[6] = test system: HSP90-dependent client proteins (Her-2, Raf, Akt); experiment: Western blot analyses of HSP90 client protein degradation in MCF-7 breast cancer cells; assay type: cell-based; settings: MCF-7 lysates, 24 hour treatment, 5x and 1/2 of antiproliferative IC50
Procedure: Since actin is not dependent on HSP90 for its maturation, actin levels should remain constant after treatment with an HSP90 inhibitor and is therefore used as a control. […] L represents a concentration ½ of the anti-proliferative IC50 value while H represents a concentration 5 times greater than the anti-proliferative IC50 value. GDA (500 nM) represents a positive control, while DMSO (0), vehicle, serves as the negative control. […]

[7] = test system: prostate cancer (PC3mm2) cell lines; experiment: Anti-proliferative activity against prostate cancer cell lines (collective statements); assay type: cell-based; settings: low nanomolar, prostate cancers; read-out: anti-proliferative activities against prostate cancers
Procedure: as §1, with “lines. The activities produced provide insight into the optimal distance between binding sites and provide rationale for subsequent analog design.” for “lines.”
(§2) The first series of analogs included compounds with simplified moieties in lieu of the noviose sugar, while subsequent analogs included varying coumarin, noviose, and tether modifications. Many of these coumermycin A1 analogs manifested potent anti-proliferative activity that correlated directly to HSP90 inhibition as evidenced by the degradation of HSP90-dependent client proteins. Replacement of the laborious, stereochemical complex, and expensive noviose sugar with commercially available piperidine moieties produced compounds that manifested ˜100-fold increase in antiproliferative activities.

[8] = test system: prostate cancer (PC3mm2, A549 and HT29) cell lines; experiment: as above; assay type: cell-based
Procedure: as §1, with “lines. The activities produced provide insight into the optimal distance between binding sites and provide rationale for subsequent analog design.” for “lines.”
as §2

[9] = test system: breast cancer (SKBr3 and MCF7) cell lines; experiment: Anti-proliferative activity against breast cancer cell lines (collective statements); assay type: cell-based; settings: versus Compound 68
Procedure: as §1, with “lines. The activities produced provide insight into the optimal distance between binding sites and provide rationale for subsequent analog design.” for “lines.”
as §2

Solubility in DMSO = assay type: physicochemical
[10] = test system: SKBr3, MCF-7, A549, HT29 and PC3mm2 cell lines; experiment: Anti-proliferative activity, cell lines not specified; assay type: cell-based; settings: versus Compounds 65-70
Procedure: as §1, with “lines. The activities produced provide insight into the optimal distance between binding sites and provide rationale for subsequent analog design.” for “lines.”

[11] = Table 4, read-out: Anti-Proliferation Activities of Biaryl Dimers, SKBr3
[12] = Table 4, read-out: Anti-Proliferation Activities of Biaryl Dimers, MCF-7
[13] = Table 4, read-out: Anti-Proliferation Activities of Biaryl Dimers, PC3mm2
[14] = Table 4, read-out: Anti-Proliferation Activities of Biaryl Dimers, A549
[15] = Table 4, read-out: Anti-Proliferation Activities of Biaryl Dimers, HT29
[16] = Table 5, read-out: Anti-Proliferation Activities Non-Noviosylated Biaryl Dimers, SKBr3
[17] = Table 5, read-out: Anti-Proliferation Activities Non-Noviosylated Biaryl Dimers, MCF-7

Cc1c(OC2CCN(C)CC2)ccc2cc(NC(=O)CCC/C=C/CCCC(=O)Nc3cc4ccc(OC5CCN(C)CC5)c(C)c4oc3=O)c(=O)oc12 [Compound 32]
IC50 ([1]; Table 2, read-out: Anti-Proliferation Activities of non-Noviosylated Olefin Dimers, SKBr3): 890 ± 10 nM
IC50 ([2]; Table 2, read-out: Anti-Proliferation Activities of non-Noviosylated Olefin Dimers, MCF7): 630 ± 30 nM
IC50 ([3]; Table 2, read-out: Anti-Proliferation Activities of non-Noviosylated Olefin Dimers, PC3mm2): 440 nM
IC50 ([4]; Table 2, read-out: Anti-Proliferation Activities of non-Noviosylated Olefin Dimers, A549): 220 nM
IC50 ([5]; Table 2, read-out: Anti-Proliferation Activities of non-Noviosylated Olefin Dimers, HT29): 240 nM
degradation of Raf and Akt, Western blot [6]: caused degradation of Raf and Akt
effect on Her2, Western blot [6]: no effect on Her2
IC50 [7]: 200 to 400 nM
fold more active than any other dimer against prostate cancers ([8]; versus other non-noviosylated dimers): 10-20 fold

COc1ccc(C(=O)Nc2cc3ccc(OC4OC(C)(C)C(OC)C(O)C4O)c(C)c3oc2=O)cc1-c1cc(C(=O)Nc2cc3ccc(OC4OC(C)(C)C(OC)C(O)C4O)c(C)c3oc2=O)ccc1OC (stereo not shown) [Compound 66]
IC50 [1, 11]: 1160 ± 210 nM
IC50 [2, 12]: 760 ± 140 nM
IC50 [3, 13]: 36700 nM
IC50 [4, 14]: 36800 nM
IC50 [5, 15]: 36500 nM
fold more active than Compound 68 against breast cancer cell lines [9]: 2 fold

COc1ccc(C(=O)Nc2cc3ccc(OC4OC(C)(C)C(OC)C(O)C4O)c(OC)c3oc2=O)cc1-c1cc(C(=O)Nc2cc3ccc(OC4OC(C)(C)C(OC)C(O)C4O)c(OC)c3oc2=O)ccc1OC (stereo not shown) [Compound 70]
IC50 [1, 11]: 910 ± 120 nM
IC50 [2, 12]: 880 ± 200 nM
IC50 [3, 13]: 270 nM
IC50 [4, 14]: 210 nM
IC50 [5, 15]: 270 nM
fold more active against prostate cancer cell lines than 8-Me analog Compound 66 ([8]; versus Compound 66): 100-150 fold

COc1ccc(C(=O)Nc2cc3ccc(OC4CCN(C)CC4)c(C)c3oc2=O)cc1-c1cc(C(=O)Nc2cc3ccc(OC4CCN(C)CC4)c(C)c3oc2=O)ccc1OC [Compound 71]
IC50 [1, 16]: 4980 ± 700 nM
IC50 [2, 17]: 14200 ± 2300 nM
solubility in DMSO (Solubility in DMSO): inherent insolubility in DMSO

COc1ccc(C(=O)Nc2cc3ccc(OCCCN(C)C)c(C)c3oc2=O)cc1-c1cc(C(=O)Nc2cc3ccc(OCCCN(C)C)c(C)c3oc2=O)ccc1OC [Compound 72]
IC50 [1, 16]: 9500 ± 1200 nM
IC50 [2, 17]: 11700 ± 1600 nM
IC50 ([3]; Table 5, read-out: Anti-Proliferation Activities Non-Noviosylated Biaryl Dimers, PC3mm2): 52300 nM
IC50 ([4]; Table 5, read-out: Anti-Proliferation Activities Non-Noviosylated Biaryl Dimers, A549): 93400 nM
IC50 ([5]; Table 5, read-out: Anti-Proliferation Activities Non-Noviosylated Biaryl Dimers, HT29): 62700 nM
solubility in DMSO (Solubility in DMSO): inherent insolubility in DMSO
fold less active than the corresponding noviosylated coumarin-containing analogs (Compounds 65-70) [10]: ~10 fold
